Reference: BindingDB's records for doi:10.1016/j.bmc.2008.09.058 (Yale University, 2009)
Square brackets hold non-standard residues; d marks the D form. Peptide text beside a SMILES is read from it. * marks the point of attachment. 4Abz = Nc1ccc(C(=O)O)cc1; NHBn = c1ccc(CN*)cc1

Target: RAC-alpha serine/threonine-protein kinase (Homo sapiens, UniProt P31749)
Experiment: AKT IMAP Fluorescence Polarization Assay
Settings: pH 7.2; 23 °C
Excerpt: A bead-based FP assay methodology, termed IMAP, has been developed for the serine/threonine kinase, AKT that allows for direct measurement of product formation. The assay design utilizes a fluoresceinated peptide substrate that, when phosphorylated by the kinase, binds to nanoparticles derivatized with trivalent metal cations through a metal-phospholigand interaction. The result of this bound fluoresceinated phosphorylated product is an increase in polarization signal caused by a decrease in the molecular mobility of the bound product. Reported values are an average of three independent binding curves utilizing an IMAP Akt Assay Kit (Molecular Devices). Reactions were conducted in wells with fluoresceinated peptide, ATP, and Akt1, and inhibitor in reaction buffer. The reactions were equilibrated for 1 h at room temperature then data points were collected and analyzed.

Sequence of RAC-alpha serine/threonine-protein kinase (P31749 whole entry): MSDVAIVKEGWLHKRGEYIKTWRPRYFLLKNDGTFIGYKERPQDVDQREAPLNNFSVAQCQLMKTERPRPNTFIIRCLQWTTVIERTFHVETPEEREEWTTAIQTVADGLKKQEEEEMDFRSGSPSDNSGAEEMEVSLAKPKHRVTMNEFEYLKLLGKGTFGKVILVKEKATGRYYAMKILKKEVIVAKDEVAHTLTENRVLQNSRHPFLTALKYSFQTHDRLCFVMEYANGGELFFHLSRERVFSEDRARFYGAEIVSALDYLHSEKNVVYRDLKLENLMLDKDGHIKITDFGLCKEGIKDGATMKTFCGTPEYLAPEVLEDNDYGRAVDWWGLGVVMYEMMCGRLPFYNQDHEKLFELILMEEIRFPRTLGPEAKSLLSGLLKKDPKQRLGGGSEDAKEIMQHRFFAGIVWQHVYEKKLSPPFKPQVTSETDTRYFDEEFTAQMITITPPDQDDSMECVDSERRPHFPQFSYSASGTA

Row | IC50 | SMILES
1 | 28 µM | CC(=O)NCC(=O)NC(CCCN=C(N)N)C(=O)N1CCCC1C(=O)NC(CCCN=C(N)N)C(=O)Nc1ccc(C(=O)NC(C(=O)NC(Cc2ccccc2)C(=O)NCc2ccccc2)C(C)C)cc1 (configuration not stated) [Peptidomimetic, 2] (Ac-GRPR[4Abz]VF-NHBn; configuration not given here)
2 | 119 µM | CC(=O)NC(CCCN=C(N)N)C(=O)Nc1ccc(C(=O)NC(C(=O)NC(Cc2ccccc2)C(=O)NCc2ccccc2)C(C)C)cc1 (configuration not stated) [Peptidomimetic, 9] (Ac-R[4Abz]VF-NHBn; configuration not given here)
